From patent US10752612B2, “PLK4 inhibitors” (LUDWIG INSTITUTE FOR CANCER RESEARCH LTD, priority 2015, dated 2020) come the findings set out here.

This experiment deals with T1, human Plk4 kinase domain (aa 2-275) (Homo sapiens, UniProt O00444).
T1 construct: purified 6×His-tagged human Plk4 kinase domain (aa 2-275); 6xHis; made in house; host or cells: E. coli
T1 sequence (O00444 2-275): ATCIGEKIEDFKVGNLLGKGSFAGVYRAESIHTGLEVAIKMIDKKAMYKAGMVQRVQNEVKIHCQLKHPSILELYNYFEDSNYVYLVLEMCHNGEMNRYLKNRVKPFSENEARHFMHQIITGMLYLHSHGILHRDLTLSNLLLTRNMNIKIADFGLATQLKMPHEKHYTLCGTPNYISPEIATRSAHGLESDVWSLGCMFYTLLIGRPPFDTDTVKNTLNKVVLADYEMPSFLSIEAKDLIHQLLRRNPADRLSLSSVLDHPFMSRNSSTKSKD
Nature of the experiment: Plk4 kinase assay (ADP-Glo). The note with it: Table 1. Format: biochemical. In outline:
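Enzyme at 2.5-10 nM final, pH 8.0, reacted 4-16 hours at 25° C; ADP generation read by ADP-Glo luminescence. Ki derived from IC50 by Cheng-Prusoff or, for tight binders, Copeland formalism.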

The IC50 is the midpoint of a concentration-inhibition curve.

As to `COc1c(Nc2cc(C)[nH]n2)nc(Sc2ccc(S(=O)(=O)Cc3ccccc3C(F)(F)F)cc2)nc1N1CCN(CCN(C)C)CC1`, the half-inhibitory concentration (IC50) is < 1 µM.
As to `COc1c(Nc2cc(C)[nH]n2)nc(Sc2ccc(S(=O)(=O)Cc3cccc([N+](=O)[O-])c3)cc2)nc1N1CCOCC1`, the IC50 is < 1 µM.
The same measure for `CCN(C)c1nc(Sc2ccc(NC(=O)C3CC3)cc2)nc(Nc2cc(C)[nH]n2)c1C`: < 1 µM; for `COc1c(Nc2cc(C)[nH]n2)nc(Sc2ccc(C(=O)Oc3cccc([N+](=O)[O-])c3F)cc2F)nc1N1CCOCC1`: < 1 µM.
The same measure for `COc1c(Nc2cc(C)[nH]n2)nc(Sc2ccc(S(=O)(=O)C(C)(C)c3cccc([N+](=O)[O-])c3F)cc2F)nc1N1CCN(CCN(C)C)CC1`: < 1 µM; for `COc1c(Nc2cc(C)[nH]n2)nc(Sc2ccc(S(=O)(=O)Cc3c(F)c(F)cc(F)c3F)cc2F)nc1N1CCOCC1`: < 1 µM.
For the compound `COc1c(Nc2cc(C)[nH]n2)nc(Sc2ccc(S(=O)(=O)Cc3ccccc3)cc2)nc1N1CCN(CCN2C3CCCC2CCC3)CC1`, the IC50 is < 1 µM.
Next, `CCOc1c(Nc2cc(C)[nH]n2)nc(Sc2ccc(NC(=O)C3CC3)cc2)nc1N1CCN(C2CCN(C)CC2)CC1`: 0.1 to 1 µM.
Next, `CNC(=O)c1ccc(Sc2nc(Nc3cc(C)[nH]n3)c(OC)c(N3CCN(CCN(C)C)CC3)n2)cc1`: < 1 µM; `COc1c(Nc2cc(C)[nH]n2)nc(Sc2ccc(S(=O)(=O)Cc3ccccc3)cc2)nc1N1CCN(C2CCN(C)CC2)CC1`: < 1 µM.
Next, `COc1c(Nc2cc(C)[nH]n2)nc(Sc2ccc(NC(C)=O)cc2)nc1N1CCN(CCN)CC1`: < 1 µM; `COC(=O)c1cccc(CS(=O)(=O)c2ccc(Sc3nc(Nc4cc(C)[nH]n4)c(OC)c(N4CCN(CCN(C)C)CC4)n3)cc2)c1`: < 1 µM; `Cc1ccc(Sc2nc(Nc3cc(C)[nH]n3)c(C)c(N(C)C(C)C)n2)cc1`: < 1 µM.
With `CC(=O)Nc1ccc(Sc2nc(Nc3cc(C)[nH]n3)cc(C3CCN(CCN(C)C)CC3)n2)cc1`, the IC50 is 0.1 to 1 µM.
As to `CNCC(=O)N1CCN(c2nc(Sc3ccc(NC(C)=O)cc3)nc(Nc3cc(C)[nH]n3)c2OC)CC1`, the IC50 was < 1 µM.
Next, `CCOc1c(Nc2cc(C)[nH]n2)nc(SC)nc1N1CCCCC1`: 0.1 to 1 µM; `COc1c(Nc2cc(C)[nH]n2)nc(Sc2ccc(NC(C)=O)cc2)nc1N1CCN(C(N)=O)CC1`: < 1 µM.
The same measure for `COc1c(Nc2cc(C)[nH]n2)nc(Sc2ccc(S(=O)(=O)Cc3cccc(I)c3F)cc2F)nc1N1CCOCC1`: < 1 µM; for `COc1c(Nc2cc(C)[nH]n2)nc(Sc2ccc(S(=O)(=O)Cc3ccccc3)cc2)nc1N1CCO[C@@H](C)C1`: < 1 µM.
Next, `COc1c(Nc2cc(C)[nH]n2)nc(Sc2ccc(S(C)(=O)=O)cc2Cl)nc1N1CCN(CCN(C)C)CC1`: < 1 µM; `COc1c(Nc2cc(C)[nH]n2)nc(Sc2ccc(NC(C)=O)cc2)nc1N1CC2CCC(C1)N2CCN1CCCCCCC1`: < 1 µM.
In the case of `CCN(CC)c1nc(Sc2ccc(NC(=O)C3CC3)cc2)nc(Nc2cc(C)[nH]n2)c1C`, the IC50 was < 1 µM.
Next, `Cc1cc(Nc2nc(Sc3ccc(NC(=O)C4CC4)cc3)nc(N3CCCCC3)c2C)n[nH]1`: < 1 µM; `CCS(=O)(=O)c1ccc(Sc2nc(Nc3cc(C)[nH]n3)c(OC)c(N3CCC(CCN(C)C)CC3)n2)c(F)c1`: < 1 µM; `CCOc1c(Nc2cc(C)[nH]n2)nc(Sc2ccc(S(=O)(=O)CC)cc2)nc1N1CCN(CCN(C)C)CC1`: < 1 µM.
The same measure for `CCCS(=O)(=O)c1ccc(Sc2nc(Nc3cc(C)[nH]n3)c(OC)c(N3CCN(CCN(C)C)CC3)n2)cc1`: < 1 µM; for `CC(=O)Nc1ccc(Sc2nc(Nc3cc(C)[nH]n3)c(C)c(N3CC=CCC3)n2)cc1`: < 1 µM; for `CCOc1c(Nc2cc(C)[nH]n2)nc(Sc2ccc(NC(=O)C3CCCC3)cc2)nc1N1CCN(C2CCNCC2)CC1`: 0.1 to 1 µM.
Next, `COc1c(Nc2cc(C)[nH]n2)nc(Sc2ccc(S(=O)(=O)C(F)(F)F)cc2)nc1N1CCN(CCN(C)C)CC1`: < 1 µM; `COc1c(Nc2cc(C)[nH]n2)nc(Sc2ccc(NC(C)=O)cc2)nc1N1CCN(C(C)=O)CC1`: < 1 µM.
`CCOc1c(Nc2cc(C)[nH]n2)nc(Sc2ccc(NC(=O)C3CCCC3)cc2)nc1N(C)CC` yielded an IC50 of 0.1 to 1 µM.
The same measure for `Cc1cc(Nc2nc(Sc3ccccc3)nc(N3CCOCC3)c2C)n[nH]1`: < 1 µM; for `COc1c(Nc2cc(C)[nH]n2)nc(Sc2ccc(S(=O)(=O)Cc3cccc(O)c3)cc2)nc1N1CCN(CCN(C)C)CC1`: < 1 µM; for `CSc1nc(Nc2cc(C)[nH]n2)c(C)c(N2CCOCC2)n1`: < 1 µM.
Next, `CC(=O)Nc1ccc(Sc2nc(Nc3cc(C)[nH]n3)c(C)c(N3CCC(O)CC3)n2)cc1`: < 1 µM.
The same measure for `CCS(=O)(=O)c1ccc(Sc2nc(Nc3cc(C)[nH]n3)c(OC)c(N3CCN(C)CC3)n2)c(Cl)c1`: < 1 µM; for `CCOc1c(Nc2cc(C)[nH]n2)nc(Sc2ccc(NC(C)=O)cc2)nc1N1CCN(C2CCN(C)CC2)CC1`: 0.1 to 1 µM.
As for `COc1c(Nc2cc(C)[nH]n2)nc(Sc2ccc(S(=O)(=O)Cc3cccc(Br)c3F)cc2F)nc1N1CCCCC1`, the IC50 is < 1 µM.
The same measure for `COc1c(Nc2cc(C)[nH]n2)nc(Sc2ccc(S(=O)(=O)Cc3ccccc3)cc2)nc1N1CCN(CCN2CCN(C)CC2)CC1`: < 1 µM.
The same measure for `CC(=O)Nc1ccc(Sc2nc(Nc3cc(C)[nH]n3)c(C)c(N3C4CCC3CC(O)C4)n2)cc1` (stereo not drawn): < 1 µM; for `CC(=O)N1CCN(c2nc(Sc3ccc(NC(=O)C4CCCC4)cc3)nc(Nc3cc(C)[nH]n3)c2C)CC1`: < 1 µM.
Next, `CC(=O)Nc1ccc(Sc2nc(Nc3cc(C)[nH]n3)c(C)c(NC3CCN(C)CC3)n2)cc1`: < 1 µM.
For the compound `COCCNc1nc(Sc2ccc(NC(=O)C3CC3)cc2)nc(Nc2cc(C)[nH]n2)c1C`, the IC50 was < 1 µM.
Take `CC(=O)N1CCN(c2nc(Sc3ccc(NC(=O)C4CC4)cc3)nc(Nc3cc(C)[nH]n3)c2C)CC1`: the 50% inhibitory concentration (IC50) was < 1 µM.
Take `COC(=O)CN1CCN(c2nc(Sc3ccc(NC(C)=O)cc3)nc(Nc3cc(C)[nH]n3)c2OC)CC1`: the IC50 was < 1 µM.
Next, `CCOc1c(Nc2cc(C)[nH]n2)nc(Sc2ccc(NC(=O)C3CC3)cc2)nc1N1CCNCC1` [drawing 122]: < 1 µM.
The same measure for `COc1c(Nc2cc(C)[nH]n2)nc(Sc2ccc(NC(=O)C3CCCC3)cc2)nc1N1CCCCC1`: 0.1 to 1 µM; for `COc1c(Nc2cc(C)[nH]n2)nc(Sc2ccc(NC(=O)C3CC3)cc2)nc1NC1CCNCC1`: 0.1 to 1 µM; for `COc1c(Nc2cc(C)[nH]n2)nc(Sc2ccc(S(=O)(=O)Cc3ccccc3F)cc2)nc1N1CCN(CCN(C)C)CC1`: < 1 µM.
Next, `COc1c(Nc2cc(C)[nH]n2)nc(Sc2ccc(S(=O)(=O)C(C)C)cc2)nc1N1CCN(CCN(C)C)CC1`: < 1 µM.
For the compound `COc1c(Nc2cc(C)[nH]n2)nc(Sc2ccc(S(=O)(=O)Cc3cccc(F)c3F)cc2F)nc1N1CCOC[C@@H]1C`, the 50% inhibitory concentration (IC50) was < 1 µM.
Next, `COc1c(Nc2cc(C)[nH]n2)nc(Sc2ccc(S(=O)(=O)Cc3ccccc3C#N)cc2)nc1N1CCN(CCN(C)C)CC1`: < 1 µM; `COc1c(Nc2cc(C)[nH]n2)nc(Sc2ccc(-c3cc4cccc([N+](=O)[O-])c4o3)cc2F)nc1N1CCOCC1`: < 1 µM; `COc1c(Nc2cc(C)[nH]n2)nc(Sc2ccc(S(=O)(=O)Cc3ccccc3)cc2F)nc1N1CCN(CCN(C)C)CC1`: < 1 µM.
Take `CC(=O)Nc1ccc(Sc2nc(Nc3cc(C)[nH]n3)c3c(n2)C2(CC3)CCN(CCN(C)C)CC2)cc1`: the IC50 is < 1 µM.
The same measure for `COc1c(Nc2cc(C)[nH]n2)nc(Sc2ccc(S(=O)(=O)Cc3c(F)c(F)c(F)c(F)c3F)cc2F)nc1N1CCOCC1`: < 1 µM.
The same measure for `COc1c(Nc2cc(C)[nH]n2)nc(Sc2ccc(S(=O)(=O)C3(c4cccc([N+](=O)[O-])c4F)CC3)cc2F)nc1N1CCC(CN)CC1`: < 1 µM; for `CC(=O)Nc1ccc(Sc2nc(Nc3cc(C)[nH]n3)c(Cl)c(N3CCCCC3)n2)cc1`: < 1 µM; for `COc1c(Nc2cc(C)[nH]n2)nc(Sc2ccc(NC(C)=O)cc2)nc1N(C)C`: < 1 µM.
Next, `COc1c(Nc2cc(C)[nH]n2)nc(Sc2ccc(S(=O)(=O)C(C)(C)c3c(F)c(F)cc(F)c3F)cc2F)nc1N1CCC(N)CC1`: < 1 µM.
Take `COCCN(C)c1nc(Sc2ccc(NC(C)=O)cc2)nc(Nc2cc(C)[nH]n2)c1C`: the IC50 was < 1 µM.
The same measure for `COc1c(Nc2cc(C)[nH]n2)nc(Sc2ccc(S(C)(=O)=O)cc2F)nc1N1CCOC[C@@H]1C`: < 1 µM; for `COc1c(Nc2cc(C)[nH]n2)nc(Sc2ccc(S(=O)(=O)Cc3ccc([N+](=O)[O-])cc3)cc2)nc1N1CCN(CCN(C)C)CC1`: < 1 µM; for `COc1c(Nc2cc(C)[nH]n2)nc(Sc2ccc(S(=O)(=O)C(F)c3cccc(C#N)c3F)cc2F)nc1N1CCOCC1` (stereo not drawn): < 1 µM.
The same measure for `Cc1cc(Nc2nc(Sc3ccc(N)cc3)nc(N3CCOCC3)c2C)n[nH]1`: < 1 µM.
For the compound `COc1c(Nc2cc(C)[nH]n2)nc(Sc2ccc(S(=O)(=O)Cc3cccc(OCc4ccccc4)c3)cc2)nc1N1CCN(CCN(C)C)CC1`, the IC50 was < 1 µM.
The same measure for `COc1c(Nc2cc(C)[nH]n2)nc(Sc2ccc(S(=O)(=O)Cc3ccccc3)cc2)nc1N(C)C`: < 1 µM; for `CCOc1c(Nc2cc(C)[nH]n2)nc(Sc2ccc(S(=O)(=O)CC)cc2)nc1N1CCNCC1`: < 1 µM.
The same measure for `COc1c(Nc2cc(C)[nH]n2)nc(Sc2ccc(NC(C)=O)cc2)nc1N1CCN(C(=O)C(C)C)CC1`: < 1 µM.
